Data taken from EP0383759B1 (Discovery Therapeutics, Inc., priority 1987, dated 1988).
Each block holds one compound with its values, some of them ahead of it.

Legend:
[1] = test system: heart rate and blood pressure; test: in vivo heart rate and blood pressure in anesthetized rats after adenosine or NECA; conditions: urethan-anesthetized rats
Excerpt: Drug injections were made intravenously through a jugular cannula.

[2] = target: T1, A2 receptors of platelets (Homo sapiens, UniProt P29274); test: antagonism of NECA-induced stimulation of adenylate cyclase activity of human platelet membranes; type: biochemical; conditions: for antagonist potency at the platelet A2 receptor: NECA-induced stimulation of adenylate cyclase, human platelet membranes, result in words
T1 construct: NECA-induced stimulation of adenylate cyclase activity of human platelet membranes; from tissue; host or cells: human platelet membranes
T1 sequence (P29274 whole entry): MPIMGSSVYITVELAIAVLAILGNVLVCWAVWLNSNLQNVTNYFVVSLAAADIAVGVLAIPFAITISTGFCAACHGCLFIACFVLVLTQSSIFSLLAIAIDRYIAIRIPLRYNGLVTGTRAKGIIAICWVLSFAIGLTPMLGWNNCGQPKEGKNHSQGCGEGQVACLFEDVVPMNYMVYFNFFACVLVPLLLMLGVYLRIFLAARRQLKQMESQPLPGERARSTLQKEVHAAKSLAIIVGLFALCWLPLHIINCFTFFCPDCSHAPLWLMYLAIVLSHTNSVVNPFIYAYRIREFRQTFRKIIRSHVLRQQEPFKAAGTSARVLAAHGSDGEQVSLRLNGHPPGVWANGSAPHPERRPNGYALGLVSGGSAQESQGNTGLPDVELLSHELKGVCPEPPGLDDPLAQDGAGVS
Procedure: (§1) Human platelet, rat pheochromocytoma (PC12) cell, rat fat cell and rat cerebral cortex membranes were prepared as described (4,5,6). Adenylate cyclase activity and binding of [^3H]PIA to cerebral cortex membranes were determined essentially as described (4,5,6).
(§2) KB values for the compounds were determined as described (4). […] EC50 and IC50 values for the agonists were obtained from the concentration-response curves by linear regression after logit-log transformation. KB values of the antagonists were calculated using the Schild equation KB = C/(CR-1), where C denotes the concentration of the competitor and CR the ratio of the EC50 and IC50 values in the presence and absence, respectively, of the competitor. IC50 of the compounds for inhibition of [^3H]PIA binding to cerebral cortex membranes were transformed into Ki values as described (6).
In these cells, A2 receptor-mediated stimulation of adenylate cyclase results in an inhibition of aggregation (5,7).

fat cell A1 receptor = target: T2, fat cell A1 receptor (Rattus norvegicus, UniProt P25099); test: antagonism of R-PIA-induced inhibition of isoproterenol-stimulated adenylate cyclase activity in fat cell membranes; type: biochemical; conditions: result in words
T2 construct: from tissue; host or cells: rat fat cell membranes
T2 sequence (P25099 1-326): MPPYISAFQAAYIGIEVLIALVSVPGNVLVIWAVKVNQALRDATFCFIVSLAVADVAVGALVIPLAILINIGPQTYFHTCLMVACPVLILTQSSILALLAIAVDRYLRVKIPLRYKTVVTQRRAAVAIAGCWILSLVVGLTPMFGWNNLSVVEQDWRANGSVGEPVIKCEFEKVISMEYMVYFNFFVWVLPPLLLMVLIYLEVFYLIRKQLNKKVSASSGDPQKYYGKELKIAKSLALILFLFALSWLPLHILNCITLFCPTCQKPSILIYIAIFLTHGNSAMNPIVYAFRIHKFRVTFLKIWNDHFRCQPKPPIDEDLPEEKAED
Procedure: as §1, §2

A1 or A2 receptors [3] = target: T3, A1 or A2 receptors (Rattus norvegicus, UniProt P25099); test: comparison of activity across the A1 and A2 adenosine receptor systems (discussion); type: biochemical; conditions: test system not specified
T3 sequence (P25099 1-326): T2 sequence (P25099 1-326)
Procedure: as §1, §2

A1 receptors = target: T4, A1 receptors (Rattus norvegicus, UniProt P25099); test: inhibition of [^3H]PIA binding to rat cerebral cortex membranes; conditions: result in words
T4 construct: from tissue; host or cells: rat cerebral cortex membranes
T4 sequence (P25099 1-326): T2 sequence (P25099 1-326)
Procedure: as §1, §2

A1 adenosine receptor = target: T5, A1 adenosine receptor (Cavia porcellus, UniProt P47745); test: antagonism of adenosine agonists' reduction in force of contraction of guinea pig atrium; type: cell-based; conditions: for antagonism at adenosine receptors in the atria / basal force of contraction in the atria: guinea pig atria; for antagonism at adenosine receptors in the atria: result in words
T5 construct: The left atria from male guinea pigs were isolated; from tissue; host or cells: isolated guinea pig left atrium
T5 sequence (P47745 1-326): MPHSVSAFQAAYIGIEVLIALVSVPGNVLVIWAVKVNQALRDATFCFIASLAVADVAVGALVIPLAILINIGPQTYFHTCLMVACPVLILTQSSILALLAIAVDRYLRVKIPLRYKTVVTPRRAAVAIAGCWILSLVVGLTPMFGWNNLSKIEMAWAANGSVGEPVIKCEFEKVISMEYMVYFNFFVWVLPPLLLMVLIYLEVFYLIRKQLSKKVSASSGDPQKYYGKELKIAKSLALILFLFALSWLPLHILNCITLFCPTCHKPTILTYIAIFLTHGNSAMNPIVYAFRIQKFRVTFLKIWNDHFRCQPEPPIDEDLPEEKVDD
Procedure: The left atria from male guinea pigs were isolated, suspended between two punctate electrodes, and placed in a 20 ml organ bath that contained Krebs-Hensileit solution that was continuously gassed with 95% O2 + 5% CO2 and maintained at 31°C. The resting tension was one gram. Theatria were stimulated electrically at 1 hz, 1 ms duration pulses at supramaximal voltage. The force of contraction was recorded isometrically.
(§3) The ability of the compounds to antagonize the effects of agonists was analyzed using modified Schild plots.

A2-adenosine receptors = test: antagonism of adenosine agonists' decrease in contractile tone of guinea pig taenia caecum; type: cell-based; conditions: result in words
Procedure: The tissues were suspended in a 20 ml organ bath containing de Jalon's solution that was gassed with 95% O2 + 5% CO2 and maintained at 31°C. The resting tension was 1.5 g. The contractile response was measured isotonically.
as §3

[4] = target: T6, A2 receptors of rat pheochromocytoma (PC12) cells (Rattus norvegicus, UniProt P30543); test: antagonism of NECA-induced stimulation of adenylate cyclase activity of PC12 cell membranes; type: biochemical; conditions: NECA-stimulated adenylate cyclase, result in words
T6 construct: NECA-induced stimulation of adenylate cyclase activity of the PC12 cells membranes; endogenous in cells; host or cells: rat pheochromocytoma PC12 cell membranes
T6 sequence (P30543 whole entry): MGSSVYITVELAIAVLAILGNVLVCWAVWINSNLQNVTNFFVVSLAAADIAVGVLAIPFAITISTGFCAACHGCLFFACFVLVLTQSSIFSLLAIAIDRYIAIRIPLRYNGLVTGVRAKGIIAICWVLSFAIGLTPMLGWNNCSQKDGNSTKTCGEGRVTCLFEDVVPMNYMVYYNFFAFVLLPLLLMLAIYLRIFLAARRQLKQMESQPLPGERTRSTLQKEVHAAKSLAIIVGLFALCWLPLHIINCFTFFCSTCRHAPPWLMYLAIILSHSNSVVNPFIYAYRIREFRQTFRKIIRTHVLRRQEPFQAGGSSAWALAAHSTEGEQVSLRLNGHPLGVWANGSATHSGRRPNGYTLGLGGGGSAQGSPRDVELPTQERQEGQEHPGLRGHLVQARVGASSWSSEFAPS
Procedure: as §1, §2

A1 or A2 receptors [5] = test: comparison of activity across the A1 and A2 adenosine receptor systems (discussion); type: biochemical; conditions: result in words
Procedure: as §1, §2

[6] = affinity constants, guinea pig left atria, modified Schild plots

antagonistic potency at the fat cell A1 receptor (fat cell A1 receptor): more potent than 9-methyladenine itself
Compound: Cn1cnc2c(NCCc3ccsc3)ncnc21 [N^6-2-(3-thienylethyl)-9-methyladenine]

antagonist potency at the platelet A2 receptor [2]: less potent than 9-methyladenine
antagonistic potency at the fat cell A1 receptor (fat cell A1 receptor): much less potent
Ki-values for inhibition of [^3H]PIA binding (A1 receptors): very weak antagonists
Compound: Cn1cnc2c(NCCc3ccccc3)ncnc21 [Example 12, N^6-2-Phenethyl-9-MA]

antagonist potency at the platelet A2 receptor [2]: equipotent to 9-methyladenine
antagonistic potency at the fat cell A1 receptor (fat cell A1 receptor): more potent than 9-methyladenine
Compound: Cn1cnc2c(Nc3ccccc3)ncnc21 [Example 9, N^6-Phenyl-9-MA]
antagonist potency at the A2 receptor of PC12 cells [4]: more potent at the platelet A2 receptor than at the PC12 A2 receptor

antagonist potency at the platelet A2 receptor [2]: less potent than 9-methyladenine
Compound: Cn1cnc2c(NCCc3cccnc3)ncnc21 [Example 14, N^6-2-(3-pyridylethyl)-9-methyladenine]

antagonist potency at the platelet A2 receptor [2]: more potent than the S-isomer
antagonistic potency at the fat cell A1 receptor (fat cell A1 receptor): more potent than the parent compound
Ki-values for inhibition of [^3H]PIA binding (A1 receptors): more potent than the S-isomer
Compound: C[C@H](Cc1ccccc1)Nc1ncnc2c1ncn2C [Example 16, N^6-R-1-Phenyl-2-propyl-9-MA]

antagonism at adenosine receptors in the atria (A1 adenosine receptor): competitive antagonists
antagonism at adenosine receptors in the atria (A1 adenosine receptor; listed as Ex. 22): the most potent antagonist
antagonism of the effects of adenosine agonists in relaxing the taenia caecum (A2-adenosine receptors): did not competitively antagonize
Compound: Cn1cnc2c(N[C@H]3C[C@H]4CC[C@@H]3C4)ncnc21 (relative stereo) [Example 22, N^6-(endonorbornyl)-9-methyladenine]
NECA-induced decrease in blood pressure ([1]; prior administration): minimally affecting
effects of NECA on the heart ([1]; prior administration): attenuated

antagonist potency at the platelet A2 receptor [2]: more potent
Kb (A1 adenosine receptor; [6]): 3980 nM
basal force of contraction in the atria (A1 adenosine receptor): produced increases
antagonism at adenosine receptors in the atria (A1 adenosine receptor): competitive antagonists
antagonistic potency at the fat cell A1 receptor (fat cell A1 receptor): more potent than the parent compound
antagonism of the effects of adenosine agonists in relaxing the taenia caecum (A2-adenosine receptors): did not competitively antagonize
Compound: CCC(CC)Nc1ncnc2c1ncn2C [Example 8, N^6-3-pentyl-9-methyladenine]
antagonist potency at the A2 receptor of PC12 cells [4]: more potent at the platelet A2 receptor than at the PC12 A2 receptor

pKB (A1 adenosine receptor; [6]): 5.36 ± 0.1
basal force of contraction in the atria (A1 adenosine receptor): produced increases
antagonism at adenosine receptors in the atria (A1 adenosine receptor): competitive antagonists
Compound: N^6-4-(-2-thienyl) -3-butyl) -9-MA [Example 23]

antagonist potency at the platelet A2 receptor [2]: more potent than 9-methyladenine itself
antagonistic potency at the fat cell A1 receptor (fat cell A1 receptor): more potent than the parent compound
Compound: Cn1cnc2c(NC3CCCCC3)ncnc21 [Example 6, N^6-Cyclohexyl-9-MA]
activity at A1 receptors (A1 or A2 receptors [3]): the most potent of N^6-substituted 9-methyladenines at A1 receptors

antagonist potency at the platelet A2 receptor [2]: somewhat more potent
Compound: Cn1cnc2c(NCCc3ccsc3)ncnc21 [Example 15, N^6-2-(3-thienylethyl)-9-methyladenine]

antagonist potency at the platelet A2 receptor [2]: as potent as 9-methyladenine
Ki-values for inhibition of [^3H]PIA binding (A1 receptors): very weak antagonists
Compound: COc1cc(CCNc2ncnc3c2ncn3C)cc(OC)c1OC [Example 13, N^6-2-(3,4,5-trimethoxyphenylethyl)-9-methyladenine]

antagonist potency at the platelet A2 receptor [2]: less potent than 9-methyladenine
activity at A1 receptors (A1 or A2 receptors [3]): modest activity
Compound: Cn1cnc2c(NCc3ccccc3)ncnc21 [Example 11, N^6-benzyl-9-methyladenine]

antagonistic potency at the fat cell A1 receptor (fat cell A1 receptor): more potent than the parent compound
Compound: C[C@@H](Cc1ccccc1)Nc1ncnc2c1ncn2C [Example 17, N^6-S-1-Phenyl-2-propyl-9-MA]

antagonist potency at the platelet A2 receptor [2]: increases potency
antagonistic potency at the fat cell A1 receptor (fat cell A1 receptor): more potent than 9-methyladenine
Compound: Cn1cnc2c(Nc3ccccc3F)ncnc21 [Example 10, N^6-2-Fluorophenyl-9-MA]

Further lines, the compound ahead of its results:

Compound: Cn1cnc2c(N[C@@H]3C[C@@H]4CC[C@H]3C4)ncnc21 (relative stereo) [N^6-(endonorbornyl)-9-methyladenine]
effects of subsequently administered adenosine on blood pressure, heart rate and P-R interval ([1]; intravenous): attenuated
heart block caused by adenosine at high doses ([1]; intravenous): substantially reduced

Compound: Cn1cnc2c(NC3CCC3)ncnc21 [Example 3, N^6-Cyclobutyl-9-MA]
antagonist potency at the platelet A2 receptor [2]: more potent than 9-methyladenine itself
antagonistic potency at the fat cell A1 receptor (fat cell A1 receptor): more potent than the parent compound
activity at A1 receptors (A1 or A2 receptors [3]): the most potent of N^6-substituted 9-methyladenines at A1 receptors

Compound: Cn1cnc2c(NC3CCCC3)ncnc21 [Example 4, N^6-cyclopentyl-9-methyladenine]
antagonist potency at the platelet A2 receptor [2]: more potent than 9-methyladenine itself
Kb (A1 adenosine receptor; [6]): 676 nM
antagonism at adenosine receptors in the atria (A1 adenosine receptor): competitive antagonists
antagonistic potency at the fat cell A1 receptor (fat cell A1 receptor): more potent than the parent compound
antagonism of the effects of adenosine agonists in relaxing the taenia caecum (A2-adenosine receptors): did not competitively antagonize
activity at A1 receptors (A1 or A2 receptors [3]): the most potent of N^6-substituted 9-methyladenines at A1 receptors
Ki-values for inhibition of [^3H]PIA binding (A1 receptors): more potent than the N^6-methylcyclopentyl analog
antagonist potency at the A2 receptor of PC12 cells [4]: more potent at the platelet A2 receptor than at the PC12 A2 receptor

Compound: Cn1c(=O)c2[nH]c(-c3ccccc3)nc2n(C)c1=O [Example 8-PT, 8-phenyltheophylline, reference compound]
antagonism of the effects of adenosine agonists in relaxing the taenia caecum (A2-adenosine receptors): did antagonize the effects of agonists at low concentrations

Compound: CNc1ncnc2c1ncn2C [Example 7, N^6-Methyl-9-MA]
antagonist potency at the platelet A2 receptor [2]: much less potent than 9-methyladenine
antagonistic potency at the fat cell A1 receptor (fat cell A1 receptor): less potent than 9-methyladenine

Compound: Nc1ncnc2nc[nH]c12 [Example 1, Adenine, reference compound]
antagonist potency at the platelet A2 receptor [2]: very weak antagonist
basal adenylate cyclase activity ([2]; human platelets, data not shown): does not affect
antagonistic potency at the fat cell A1 receptor (fat cell A1 receptor): does not affect
Ki-values for inhibition of [^3H]PIA binding (A1 receptors): low potency
antagonist potency at the A2 receptor of PC12 cells [4]: very weak antagonist

Compound: COc1cc(CCNc2ncnc3c2ncn3C)cc(OC)c1OC
selectivity for A1 or A2 receptors (A1 or A2 receptors [5]): selectivity for A2 receptors

Compound: Cn1cnc2c(NC3(C)CCCC3)ncnc21 [Example 5, N^6-1-methylcyclopentyl-9-methyladenine]
antagonist potency at the platelet A2 receptor [2]: less potent than the parent cyclopentyl analog
antagonistic potency at the fat cell A1 receptor (fat cell A1 receptor): less potent than the N^6-cyclopentyl analog
activity at A1 receptors (A1 or A2 receptors [3]): reduces activity at A1 receptors
antagonist potency at the A2 receptor of PC12 cells [4]: reduces potency

Compound: Cn1cnc2c(N)ncnc21 [Example 2, 9-methyladenine, reference compound]
antagonist potency at the platelet A2 receptor [2]: more potent than the adenine itself
antagonistic potency at the fat cell A1 receptor (fat cell A1 receptor): antagonizes the effect of R-PIA
Ki-values for inhibition of [^3H]PIA binding (A1 receptors): equally potent at A1 receptors of fat cells and cerebral cortex
antagonist potency at the A2 receptor of PC12 cells [4]: equally potent at A2 receptors of human platelets and rat PC12 cells
